The test system of test [1] is T. gondii ME49 bradyzoites. The test is described as follows: qPCR of SAG1, GRA11B, TUB1A on cDNA of infected cat intestinal monolayers. It is filed as cell-based, Toxoplasma gondii. The note with it: cat intestinal monolayers cDNA. The protocol:
(§1) FIGS. 6A-B. Quantification of merozoites in cat tissue culture. A) Cat intestinal organoids were disassociated by trypsin then grown as monolayers on glass slides. Slides were divided into three different groups: not supplemented with fatty acid, supplemented with 200 μM oleic acid or supplemented 200 μM linoleic acid. Monolayers were infected with T. gondii MEM bradyzoites purified from brains of chronic infected mice at a 1:10 MOI. Five days after infection, staining for GRA11B and BRP1 along with DAPI, allowed the percentage of vacuoles positive for GRA11B and BRP1out of the total vacuoles was determined. Total number of parasitophorous vacuoles were counted by positive DAPI staining and confirmed by morphology with DIC. At least 50 parasitophorous vacuoles were counted per replicate. Three biological replicates were counted and on average 35% of the total vacuoles were positive far both GRA11B and BRP1 in the linoleic acid supplemented monolayers. *p-value=0.0126 with N=3 by two-tailed unpaired t test. Straining for both BRP1 and GRA11B was used to ensure that merozoite stages were counted. […] BRP1 is a rhoptry protein that was initially found in bradyzoites; however, it is also expressed in merozoite. B) Cat intestinal monolayers were grown as described in panel A, except monolayers were quenched by TRIzol 5 days post-infection, RNA was extracted, and cDNA was synthesized using an oligo (dT) primer to amplify mRNA, Expression of SAG1 and GRA11B were quantified by qPCR and the fold change calculated in comparison with uninfected cells. TUB1A was used to normalize gene expression across samples.
Real-time PCR on ileum cDNA. Z-DNA binding protein deletion mice ice with and without delta-6-desaturase inhibitor treatment were euthanized 7 days post infection. The ileum of each mouse was removed and homogenized in 1 mL of TRIzol. Total RNA was isolated according to manufacturer's protocol (Invitrogen) and treated with amplification grade Dnase I. cDNA was generated using the Invitrogen SuperScript III First-Strand Synthesis kit with random hexamer primers. GRA11B and SAG1 were used as markers of sexual and asexual stages, respectively. The T. gondii housekeeping gene TUB1A was used to normalize target gene expression. Real-time quantitative PCR was performed using Bio-Rad iTaq Universal SYBR Green Supermix on 311 an Applied Biosystems StepOnePlus Real-Time PCR system. The efficiency of each primer set was calculated from the slope of a 1:10 dilution standard curve of tachyzoite gDNA, where E=10^(−1/slope). The Pfaffl method (Pfaffl, 2001), which accounts for differences in efficiencies, was then used to calculate the relative gene expression of GRA11B and SAG1 per sample, in triplicate. Only wells with one melt curve temperature were used, indicating a single product. Primer sequences were as follows: […]
On the technique in general: In qPCR the cycle at which signal appears reflects the starting amount.

In test [2] the test system is T. gondii ME49 bradyzoites. In words: Gametes and intracellular oocyst walls (AO2, 3G4, PCR) in infected cat intestinal monolayers. Type of test: cell-based, Toxoplasma gondii. The note with it: cultured cat cells, 200 μM fatty acid, 7 days of infection. Here is the method:
FIGS. 7A-H. Identification of gametes and intracellular oocysts in cat tissue culture. Cat intestinal organoids were disassociated by trypsin then grown as monolayers on glass slides. […] After 7 days, monolayers were incubated with mouse anti-AO2 (panels A-C) or mouse monoclonal IgM 3G4 (panels E-G), The amiloride-sensitive amine oxidase, copper-containing protein 2 (AO2) is an enzyme exclusively expressed in macrogametes and early oocysts and has a possible role in oocyst wall biogenesis. […] 3G4 is a mouse monoclonal antibody produced by immunizing mice with purified oocyst walls, thus it is a marker of oocyst wall biogenesis. Only monolayers supplemented with linoleic acid (G) had positive 3G4 vacuoles. All panels are 20 μm square with a 5 μm white size bar in the lower right corner. D) Markers for macrogamete and microgamete expression were also evaluated by PCR. Cat intestinal monolayers were grown in 24-well plates until confluency and then infected with T. gondii bradyzoites in duplicate using the same conditions as above. 7 days post-infection, RNA was extracted with TRIzol and cDNA was synthesized using an oligo (dT) primer to only amplify mRNA. AO2 was again used as a marker for macrogametes and the expected PCR product is 218 bp. To assess microgamete presence, we selected the gene TgME49_306338, which is overexpressed in the gametes stage, corresponded to day 7 post-infection in cats and has 44% identity to a protein expressed in the flagella of the motile green algae Chlamydomonas reinhardtii. The expected PCR product for TgME49_306338 is 160 bp. TUB1A was used as an input control and results in a 172 bp product. NO RT corresponds to a cDNA synthesis reaction without the addition of reverse transcriptase (RI) as a control for genomic DNA contamination. Equivalent amounts of cDNA per sample were used as a template for each PCR reaction, and the products were separated on an acrylamide gel. […] H) The number of positive oocyst walls stained with 3G4 were quantified. […] The number of positive oocyst walls were counted in each slide and divided by the area of slide in cm^2.
Immunofluorescence. Intestinal organoid monolayers or mouse fecal samples were fixed in 3.7% formaldehyde in PBS for 20 minutes, permeabilized with 0.2% triton X-100 (Sigma) in PBS at room temperature for one hour and then blocked with 3% BSA in PBS at room temperature for one hour. Primary antibody was incubated at 4° C. overnight in 0.2% v/v Triton x-100 and 3% BSA in PBS (1:100 mouse anti-GRA11B, 1:100 rabbit anti-BRP1, 1:100 mouse anti-AO2, 1:50 monoclonal mouse anti-ZO1 (Santa Cruz) or 1:25 mouse 288 IgM anti-oocyst wall 3G4. Sporulated oocysts from mouse feces were dried onto slides, fixed and permeabilized with ice cold acetone for 30 minutes and incubated with 1:20 mouse 4B6 to the visualize the sporocyst. Slides were incubated one hour with the specific secondary antibody (1:500 goat anti-rabbit Alexa Fluor 488 and 1:500 goat anti-mouse Alexa Fluor 594) at room temperature for one hour and then washed 3 times with PBS. Cells nuclei were stained with 10 μM DAPI (Sigma). Slides were mounted in Vectashield antifade mounting medium (VectorLabs). Samples were imaged on Zeiss Axioplan III equipped with a triple-pass (DAPI/fluorescein isothiocyanate [FITC]/Texas Red) emission cube, differential interference contrast optics, and a monochromatic Axiocam camera operated by Zen software (Zeiss) and processed using ImageJ (Fiji packet).
PCR of cat intestinal monolayers. […]

Test [3] has as its system T. gondii ME49 bradyzoites. In words: Merozoite markers GRA11B/BRP1, immunofluorescence, infected cat intestinal monolayers. Type of test: cell-based, Toxoplasma gondii. The settings on record: 200 μM fatty acid, 5 days of infection. Here is the method:
as §1, with “B) Cat intestinal monolayers were grown as described in panel A, except monolayers were quenched by TRIzol 5 days post-infection, RNA was extracted, and cDNA was synthesized using an oligo (dT) primer to amplify mRNA, Expression of SAG1 and GRA11B were quantified by qPCR and the fold change calculated in comparison with uninfected cells. TUB1A was used to normalize gene expression across samples.” left out

The test system of the next test is murine organoids. In words: Monolayer formation of murine organoids with delta 6-desaturase inhibitor. It is filed as cell-based, mouse. The note with it: about 2 μM to 200 μM, medium with about 200 μM linoleic acid.
Test [4] has as its system T. gondii ME49 bradyzoites. In words: Real-time PCR on ileum cDNA of infected Z-DNA binding protein knock out mice. It is filed as in vivo, Toxoplasma gondii. The note with it: mice, linoleic acid and SC26196 50 mg/kg every 12 hours by oral gavage, seven days after infection. Here is the method:
(§2) Delta-6-desaturase inhibition. SC 26196 (Cayman) was solubilized in DMSO and used at 20 μM in mouse organoid monolayers. For in vivo treatment, the inhibitor was solubilized in 0.5% m/v methylcellulose and the mice were given 50 mg/kg every 12 hours by oral gavage (He et al., 2012). 4-week old C57BL/6J female mice deleted in Z-DNA-binding protein (Pittman et al., 2016) were divided into four different groups: uninfected control, T. gondii-infected without fatty acid supplementation, T. gondii infected with linoleic acid supplementation, and T. gondii-infected with linoleic acid and SC 26196 inhibitor. Each mouse supplemented with linoleic acid received 10 μL of 99% linoleic acid oil (MilliporaSigma Cat #843483) suspended in 0.5% Methylcellulose per day by oral gavage. Mice were infected with 1000 brain cysts purified as described above by oral gavage and euthanized 7 days post infection. Sample size was at least 2 mice per group and the experiment was repeated 5 times. Alternatively, each mouse was infected with one mouse brain at least 2 months postinfection with at least 1000 cysts. Mice were treated with SC 26196 until day 5 postinfection. Feces were collected from days 5-14 and oocysts enumerated by microscopy.
Real-time PCR on ileum cDNA. Z-DNA binding protein deletion mice ice with and without delta-6-desaturase inhibitor treatment were euthanized 7 days post infection. The ileum of each mouse was removed and homogenized in 1 mL of TRIzol. Total RNA was isolated according to manufacturer's protocol (Invitrogen) and treated with amplification grade Dnase I. cDNA was generated using the Invitrogen SuperScript III First-Strand Synthesis kit with random hexamer primers. GRA11B and SAG1 were used as markers of sexual and asexual stages, respectively. The T. gondii housekeeping gene TUB1A was used to normalize target gene expression. Real-time quantitative PCR was performed using Bio-Rad iTaq Universal SYBR Green Supermix on 311 an Applied Biosystems StepOnePlus Real-Time PCR system. The efficiency of each primer set was calculated from the slope of a 1:10 dilution standard curve of tachyzoite gDNA, where E=10^(−1/slope). The Pfaffl method (Pfaffl, 2001), which accounts for differences in efficiencies, was then used to calculate the relative gene expression of GRA11B and SAG1 per sample, in triplicate. Only wells with one melt curve temperature were used, indicating a single product. Primer sequences were as follows:
Statistical methods. All real-time PCR fecal samples were run in triplicate technical replicates. The difference between the mean target gene copy numbers was analyzed by two-tailed unpaired t tests. The real-time PCR intestinal samples were run in triplicate from two biological replicates per group. The difference between the mean relative expression of each target gene was analyzed by two-tailed unpaired t tests.

Test [5] concerns T. gondii. In words: Oocyst counts in mouse feces by microscopy. Type of test: in vivo, Toxoplasma gondii. The note with it: mice, inhibitor every 12 hours for the 7 days of infection. Here is the method:
as §2

The conditions of test [6]: whole animal experiments (He et al., 2012); cited from earlier work.
The test system of test [7] is T. gondii. The test is described as follows: Real-time PCR (SAG1) on gDNA of mouse fecal samples. The note with it: mice fed linoleic acid, with or without SC26196. Type of test: in vivo, Toxoplasma gondii. The protocol: as §2
Real-time PCR on fecal samples. […] A standard curve was generated using a dilution series of 101-105 parasites per well amplified using the SAG1 primer set described above, based on a gDNA sample with known parasite quantity. […]
[formula] […] The calculated copy numbers of each sample were normalized based on the ng of nucleic acid used as PCR template. […]
Statistical methods. […] The difference between the mean target gene copy numbers was analyzed by two-tailed unpaired t tests. […] The difference between the mean relative expression of each target gene was analyzed by two-tailed unpaired t tests.

The mark [8] stands for this setting: biological replicates 1 and 2, wells 1-3.

Values joined by “and” are separate entries in the source; they are usually repeats but may differ in a detail not shown here. Equal values may be shown once. “Also recorded” adds a separate entry of the source.

On to `CCCCCCCC/C=C\CCCCCCCC(=O)O` [oleic acid], for which, in test [1] (biological replicates 1 and 2), the “GRA11B Ct mean” value was 32.53 and 31.82; the “SAG1 Ct mean” value was 20.83 and 19.56. In test [1] (setting [8]), the “GRA11B raw Ct values” was 32.44 and 31.77 (2×) and 32.73 and 31.91 and 32.43; the “SAG1 raw Ct values” is 20.87 and 19.66 and 20.88 and 19.54 and 20.75 and 19.46. Also, the “number of positive oocyst walls stained with 3G4” value in test [2] is recorded as “none”. The “parasites undergoing sexual development / merozoite stage markers GRA11B and BRP1 (staining)” value in test [3] is listed as “not”.
As for `N#CC(CCCN1CCN(/N=C/c2cccnc2)CC1)(c1ccccc1)c1ccccc1` [SC26196], the monolayer formation result with murine organoids is listed as “did not inhibit monolayer formation”. Also, in test [4], the “expression of merozoite marker GRA11B, qPCR of ileum cDNA” value is listed as “significantly up regulated only in the presence of SC26196”. Also, the oocysts produced with T. gondii [5] is recorded as 1000-10,000 oocysts/gram dry feces. In addition, the anti-inflammatory effect result in test [6] is listed as “effective as an anti-inflammatory agent”. In addition, in the test with T. gondii [7], the “T. gondii genomic DNA in mouse fecal samples (qPCR, SAG1 primers)” value was “detectable only in mice treated with SC26196; also recorded: detected only in mice treated with SC26196”.

The values are drawn from patent US12171821B2, “Toxoplasma gondii vaccine” (priority 2018, dated 2024).
